These results are taken from US20180147153A1, “PROCESS FOR MAKING A COATED DOSAGE FORM” (Johnson & Johnson Consumer Inc., priority 2016, published 2018).

SMILES strings stand for the structures.

Common to all, as to assay type: physicochemical
Data set [1] in a line: Dielectric properties (e′, e″, loss tangent, Q value) by Slotted Line Method. From the text: The property of permittivity is the measure of the resistance to forming an electric field. For purposes of comparing materials in air, it is often convenient to describe the permittivity of material in air where the permittivity is more specifically called “relative permittivity” or €r. This is a complex number represented by the following equation: […]
where e′ (the real portion of the complex number) is the dielectric constant (energy storage) and e″ (the imaginary portion of the complex number) is the dielectric loss or dissipation factor (energy dissipated as heat). The ratio of dielectric loss (e″) over the dielectric constant (e′) is called the loss tangent (tan δ) or power factor.
For purposes of this invention, the Q value is calculated for the frequency that the material is to be processed (e.g., 27 MHz). The Q value is affected by physical and chemical properties such as density (porosity/particle size), moisture (conductivity), temperature, and molecular polarizability. The measurements obtained by this method can eliminate the need to measure and evaluate these properties independently.
This process is referred to as the “Slotted Line Method.” Unless otherwise stated, the Slotted line method was used for the calculation of e′, e″, and Q value herein with the frequency range set to 26-28 MHz (31 points resolution) and values of e′ and e″ were recorded from the 27 MHz data point.

Data set [2] in a line: Water activity. As to conditions: Table 1b.
Data set [3] in a line: Loss on drying (moisture). As to conditions: Table 1b. The protocol: In one embodiment, the lossy coated particle contains water. In this embodiment, the lossy coated particle comprises at least 0.1 percent, by weight, water, such as at least 0.3 percent, by weight, water, such as at least 0.5 percent, by weight, water when measured using loss on drying at 105° C. until the weight of the lossy coated particles has stabilized. In one embodiment, the lossy coated particle retains water when measured by loss on drying prior to sintering, such as moisture content of at least 0.1 percent by weight, such as from about 0.1 to about 3 percent, such as from about 0.5 to about 2 percent, by weight.

Where [4] appears, read: Table 1b, surface stabilizing agents, 27 MHz.

Turning to `OC[C@@H](O)[C@@H](O[C@H]1O[C@H](CO)[C@@H](O)[C@H](O)[C@H]1O)[C@H](O)[C@@H](O)CO` [Maltitol (SweetPearl DC300), Maltitol], the “e′” value in data set [1] (Table 1a, dielectric constant, 27 MHz data point, Slotted Line Method) amounted to 1.6214. In data set [1] (Table 1a, dielectric loss, 27 MHz data point, Slotted Line Method), the “e″” value was determined as 0.0035. In data set [1] (Table 1a, e″/e′, 27 MHz), the “Loss Tangent” value was found to be 0.0022.
Consider `OC[C@H]1O[C@H](O[C@H]2O[C@H](CO)[C@@H](O)[C@H](O)[C@H]2O)[C@H](O)[C@@H](O)[C@@H]1O` [Trehalose], for which the “Water Activity” value in data set [2] amounted to 0.1935. Besides, in data set [1] (setting [4]), the “e′” value was determined as 1.5185 and the “e″” value worked out at 0.0007. Besides, in data set [3], the “Loss on Drying @ 105° C.” value was 0.137.
The corresponding values for `OC[C@@H](O)[C@H](O)[C@@H](O)CO` [Xylitol (Xylitab ® 100), Xylitol] are 0.453, 1.751, 0.010 and 0.035.
